Values of other authors in patent US20150147378A1, “COPOLYMER-XEROGEL NANOCOMPOSITES USEFUL FOR DRUG DELIVERY” (RUTGERS, THE STATE UNIVERSITY OF NEW JERSY, priority 2008, published 2015).

CO[C@H]1/C=C/O[C@@]2(C)Oc3c(C)c(O)c4c(O)c(c(/C=N/N5CCN(C)CC5)c(O)c4c3C2=O)NC(=O)/C(C)=C\C=C\[C@H](C)[C@H](O)[C@@H](C)[C@@H](O)[C@@H](C)[C@H](OC(C)=O)[C@@H]1C [rifampicin]
octanol/water partition coefficient, log P: 2.72
